In patent publication US20160296529A1, “AMINOTRIAZOLOPYRIDINE FOR USE IN THE TREATMENT OF INFLAMMATION, AND PHARMACEUTICAL COMPOSITIONS THEREOF” (priority 2012, published 2016):
Values joined by “and” are separate entries in the source; they are usually repeats but may differ in a detail not shown here. Identical values can stand only once. Like-named read-outs stand apart in the source and are kept apart here.

Assays:
[1] = target: T1, Recombinant human JAK1 catalytic domain (Homo sapiens, UniProt P23458); assay: JAK1 Ulight-JAK1 peptide assay; type: biochemical
T1 construct: amino acids 866-1154; catalog number PV4774; purchased Invitrogen PV4774
T1 sequence (P23458 866-1154): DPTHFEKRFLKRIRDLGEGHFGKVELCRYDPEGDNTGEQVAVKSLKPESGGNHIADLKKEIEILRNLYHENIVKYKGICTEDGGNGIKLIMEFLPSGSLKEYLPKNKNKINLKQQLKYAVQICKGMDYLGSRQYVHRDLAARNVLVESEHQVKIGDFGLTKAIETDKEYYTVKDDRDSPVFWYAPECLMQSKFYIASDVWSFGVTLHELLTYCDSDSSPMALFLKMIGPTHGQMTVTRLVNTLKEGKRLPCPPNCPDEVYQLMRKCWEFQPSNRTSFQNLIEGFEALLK
Experimental: Recombinant human JAK1 (catalytic domain, amino acids 866-1154; catalog number PV4774) was purchased from Invitrogen. 1 ng of JAK1 was incubated with 20 nM Ulight-JAK1(tyr1023) peptide (Perkin Elmer catalog number TRF0121) in kinase reaction buffer (15 mM MOPS pH6.8, 0.01% Brij-35, 5 mM MgCl2, 2 mM DTT, 7 μM ATP) with or without 4 μL containing test compound or vehicle (DMSO, 1% final concentration), in a total volume of 20 μL, in a white 384 Opti plate (Perkin Elmer, catalog number 6007290). […] Readout was performed using the Envision with excitation at 320 nm and measuring emission at 615 nm (Perkin Elmer). Kinase activity was calculated by subtracting relative fluorescence units (RFU) obtained in the presence of a positive control inhibitor (10 μM staurosporine) from RFU obtained in the presence of vehicle. The ability of a test compound to inhibit this activity was determined as:
Percentage inhibition=((RFU determined for sample with test compound present−RFU determined for sample with positive control inhibitor) divided by (RFU determined in the presence of vehicle−RFU determined for sample with positive control inhibitor))*100.
A dose dilution series was prepared for the compound enabling the testing of dose-response effects in the JAK1 assay and the calculation of the IC50 for the compound. […] The data were expressed as the average IC50 from the assays±standard error of the mean.

[2] = system: IL-6-induced STAT1 phosphorylation (JAK1-dependent pathway); assay: Human whole blood assay (hWBA), IL-6 stimulation, phospho-STAT1 on CD4+ cells; type: cell-based
Experimental: A flow cytometry analysis was performed to establish JAK1 over JAK2 compound selectivity ex vivo using human whole blood. Therefore, blood is taken from human volunteers who gave informed consent. Blood is then equilibrated for 30 min at 37° C. under gentle rocking, then aliquoted in Eppendorf tubes. Compound is added at different concentrations and incubated at 37° C. for 30 min under gentle rocking and subsequently stimulated for 20 min at 37° C. under gentle rocking with interleukin 6 (IL-6) for JAK1-dependent pathway stimulation or GM-CSF for JAK2-dependent pathway stimulation. Phospho-STAT1 and phospho-STAT5 are then evaluated using FACS analysis. […]
Cells were then washed once with 1×PBS and analyzed on a FACSCanto II flow cytometer (BD Biosciences).
50,000 total events are counted and Phospho-STAT1 positive cells are measured after gating on CD4^+ cells, in the lymphocyte gate. Data are analyzed using the FACSDiva software and the percentage of inhibition of IL-6 stimulation calculated from the percentage of positive cells for phospho-STAT1 on CD4+ cells.
A flow cytometry analysis was performed to establish JAK1 over JAK2 compound selectivity ex vivo using human whole blood. […] Phospho-STAT1 (for IL-6- and IFNα-stimulated cells) and phospho-STAT5 (for IL-2- and GM-CSF-stimulated cells) levels are then evaluated using FACS analysis. […]

IC50 ([1]; average, read-out: IC50 (average)): 307 nM
IC50 ([1]; individual determinations, read-out: IC50): 347 nM and 355 nM and 222 nM and 714 nM and 167 nM and 103 nM and 187 nM and 582 nM and 295 nM and 242 nM and 159 nM
IC50 ([2]; human whole blood, 6 different donors): 11900 nM
Compound: Nc1nc2cccc(-c3ccc(CN4CCS(=O)(=O)CC4)cc3)n2n1 [Formula I, 5-[4-(1,1-Dioxothiomorpholin-4-ylmethyl)-phenyl]-[1,2,4]triazolo[1,5-a]pyridin-2-ylamine]
selectivity for JAK1 over JAK2 ([2]; in vitro whole blood selectivity assay (IL-6 vs GM-CSF)): over 10 fold
